According to US20230374007A1, “COMPOUNDS AND THEIR USE IN TREATING CANCER” (AstraZeneca AB, priority 2020, published 2023):

How the values were obtained:
[1] = target: T1, endogenous IKZF1 protein in NB4 cells (Homo sapiens, UniProt Q13422); assay: Endogenous Ikaros 1 (IKZF1) degradation assay (SDS-PAGE); type: cell-based; conditions: 1 μM and 10 μM, 20 h of treatment
T1 construct: the endogenous IKZF1 protein; endogenous in cells; host or cells: NB4

[2] = target: T2, cereblon (CRBN)—DNA damage protein 1 (DDB1) complex (Homo sapiens, UniProt Q96SW2); assay: Cereblon HTRF binding assay
T2 construct: encoding amino acid residues 1 to 442 (Uniprot Q96SW2); hexahistidine (N); thrombin cleavage site (N); made in house; host or cells: Sf9 insect cells (baculovirus co-infection)
Outline: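 Biotinylated His-tagged CRBN-DDB1 (0.2 nM, baculovirus-expressed) was combined with 0.2 nM terbium cryptate streptavidin and 2 nM Cy5-lenalidomide probe in 50 mM Tris-HCl pH 7.5, 100 mM NaCl, 1 mM TCEP, 500 μM EDTA, 0.01% Pluronic F127 for 2 h at r.t. HTRF ratio was normalized to plate controls. IC50 came from a Hill fit, given as mean of one or more experiments.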

[3] = target: T3, BRD4 tagged to a HiBiT tag in HEK 293 cells (Homo sapiens, UniProt O60885); assay: HiBiT degradation assay; type: cell-based; conditions: for DC50: BRD4 degradation, HiBiT-BRD4 HEK 293 cells, 18 h; for Dmax: HEK293
T3 construct: at the N-terminus of endogenous BRD4; endogenous in cells
Experimental: Determination of PROTAC potency was determined in HEK 293 cells expressing BRD4 tagged to a HiBiT tag. To generate those cells, HiBiT tag (aminoacid sequence: […]) was inserted, via CRISPR CAS9 knock-in, at the N-terminus of endogenous BRD4.
To measure success of knock-in the cells were then tested for their level of luminescence. Finally a stable pool was generated from them. In a typical experiment, 14×10^3 cells are seed in the wells of a 384 well plate (white flat bottom, tissue culture ready, corning 781080) in 40 μL of culture medium (DMEM, 10% FBS and 2 mM Gln). Immediately after seeding, PROTAC compounds, diluted in DMSO solution, are added to the wells via ECHO 555 acoustic dispenser at the appropriate concentration. DMSO is used as a not active control and as normalization. In each plate a series of compounds of known DC50 are included as quality control. The 384 well plate is placed in an incubator at 37° C. and 5% CO2 for 18 h. At the end of the incubation period plates are removed from the incubator and the medium is replaced with 10 μL of PBS and 10 μL of complete NanoGlo HiBiT solution (Promega N3040, consisting of 9.7 μL of Lysis buffer, with 0.1 μL of LgBiT protein and 0.2 μL of nanoluciferase substrate). After 15 minutes of incubation at r.t., the luciferase activity of the plate is recorded in a luminometer. dBET6 (MCE® Cat. No.: HY-112588) was used for normalization when calculating Dmax.

[4] = target: T4, human BRD4 (amino acid residues 42 to 169) (Homo sapiens, UniProt O60885); assay: BRD4 surface plasmon resonance (SPR) assay; type: binding; conditions: biotinylated BRD4, 25° C., read-out: BRD4 Affinity Kd
T4 construct: encoding amino acid residues 42 to 169 (Uniprot 060885) of human BRD4; hexahistidine (N, cleaved yes); TEV cleavage site (N, cleaved yes); made in house; host or cells: E. coli BL21 Gold (DE3)

[5] = target: T5, endogenous SALL4 protein in Kelly cells (Homo sapiens, UniProt Q9UJQ4); assay: Endogenous SALL4 degradation assay (SDS-PAGE); type: cell-based; conditions: 10 μM, 20 h of treatment
T5 construct: the endogenous SALL4 protein; endogenous in cells; host or cells: Kelly
T5 sequence (Q9UJQ4 whole entry): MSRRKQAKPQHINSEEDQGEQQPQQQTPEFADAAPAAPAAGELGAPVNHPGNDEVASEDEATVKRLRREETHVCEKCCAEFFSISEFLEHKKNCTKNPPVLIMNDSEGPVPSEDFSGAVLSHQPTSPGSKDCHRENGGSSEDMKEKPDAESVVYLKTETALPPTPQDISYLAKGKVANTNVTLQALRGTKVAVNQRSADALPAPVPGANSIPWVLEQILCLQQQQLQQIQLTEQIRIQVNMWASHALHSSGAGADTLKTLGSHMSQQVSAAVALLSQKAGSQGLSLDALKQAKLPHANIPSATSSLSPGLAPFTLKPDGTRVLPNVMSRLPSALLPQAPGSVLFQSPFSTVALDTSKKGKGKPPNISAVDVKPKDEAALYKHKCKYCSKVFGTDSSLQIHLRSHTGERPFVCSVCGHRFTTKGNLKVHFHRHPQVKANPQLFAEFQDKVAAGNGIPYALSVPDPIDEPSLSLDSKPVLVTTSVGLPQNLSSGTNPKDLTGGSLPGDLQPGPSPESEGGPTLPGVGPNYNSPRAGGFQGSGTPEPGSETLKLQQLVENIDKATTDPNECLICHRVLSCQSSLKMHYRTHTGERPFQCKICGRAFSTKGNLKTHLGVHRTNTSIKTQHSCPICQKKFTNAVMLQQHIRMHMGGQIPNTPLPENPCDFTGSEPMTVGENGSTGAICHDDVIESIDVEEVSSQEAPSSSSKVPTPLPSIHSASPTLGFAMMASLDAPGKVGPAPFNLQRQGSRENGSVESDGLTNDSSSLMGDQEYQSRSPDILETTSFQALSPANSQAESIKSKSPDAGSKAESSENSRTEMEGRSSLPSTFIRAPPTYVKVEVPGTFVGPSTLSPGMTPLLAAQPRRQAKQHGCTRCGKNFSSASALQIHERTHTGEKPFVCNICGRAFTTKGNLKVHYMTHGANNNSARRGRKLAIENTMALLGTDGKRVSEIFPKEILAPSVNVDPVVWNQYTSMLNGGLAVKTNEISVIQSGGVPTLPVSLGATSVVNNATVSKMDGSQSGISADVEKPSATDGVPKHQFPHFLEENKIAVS

T1 sequence (Q13422 whole entry): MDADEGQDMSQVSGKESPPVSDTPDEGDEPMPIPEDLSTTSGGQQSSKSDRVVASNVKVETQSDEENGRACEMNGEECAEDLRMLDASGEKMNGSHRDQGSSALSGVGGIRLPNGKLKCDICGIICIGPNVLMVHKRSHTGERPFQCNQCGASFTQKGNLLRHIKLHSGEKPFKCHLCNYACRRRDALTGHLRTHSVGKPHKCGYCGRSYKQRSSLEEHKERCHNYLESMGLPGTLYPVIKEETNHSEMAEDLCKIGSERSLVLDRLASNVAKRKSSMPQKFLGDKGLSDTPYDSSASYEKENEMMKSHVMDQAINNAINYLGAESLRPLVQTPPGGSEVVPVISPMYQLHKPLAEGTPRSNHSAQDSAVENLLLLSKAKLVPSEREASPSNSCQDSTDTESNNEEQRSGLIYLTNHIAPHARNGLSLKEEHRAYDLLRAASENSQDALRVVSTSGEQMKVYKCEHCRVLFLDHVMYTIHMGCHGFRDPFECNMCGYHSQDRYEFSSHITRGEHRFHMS
T2 sequence (Q96SW2 with tags, fused parts or gaps): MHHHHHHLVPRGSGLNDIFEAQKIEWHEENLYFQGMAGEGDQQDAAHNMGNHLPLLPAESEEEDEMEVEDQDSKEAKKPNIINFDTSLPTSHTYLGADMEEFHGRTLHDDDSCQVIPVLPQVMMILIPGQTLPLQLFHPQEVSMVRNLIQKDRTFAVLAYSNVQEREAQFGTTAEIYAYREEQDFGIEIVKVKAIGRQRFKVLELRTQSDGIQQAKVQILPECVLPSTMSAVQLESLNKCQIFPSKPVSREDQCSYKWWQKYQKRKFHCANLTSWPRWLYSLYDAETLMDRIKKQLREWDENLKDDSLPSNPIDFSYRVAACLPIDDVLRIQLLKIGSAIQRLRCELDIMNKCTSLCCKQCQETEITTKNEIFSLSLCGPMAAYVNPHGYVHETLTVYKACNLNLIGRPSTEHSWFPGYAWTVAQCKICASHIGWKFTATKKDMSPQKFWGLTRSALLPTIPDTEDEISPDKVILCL

| Compound | IC50 [2] [nM] | other results |
| --- | --- | --- |
| Nc1cccc2c1CN(C1CCC(=O)NC1=O)C2=O (stereo not drawn) [lenalidomide, reference compound] | – | IKZF1 degradation [1]: degradation of IKZF1 to an undetected level |
| O=C1CCN(c2cncc3[nH]ccc23)C(=O)N1 [Example 17, 1-(1H-Pyrrolo[2,3-c]pyridin-4-yl)dihydropyrimidine-2,4 (1H,3H)-dione] | 206 | IKZF1 degradation [1]: no observable/meaningful IKZF1 degradation |
| Cc1sc2c(c1C)C(c1ccc(Cl)cc1)=N[C@@H](CC(=O)NCCOCCOCCOCCOCCOCCOCCNC(=O)Cc1c[nH]c3cc(N4CCC(=O)NC4=O)ccc13)c1nnc(C)n1-2 [Example 129, (S)-2-(4-(4-Chlorophenyl)-2,3,9-trimethyl-6H-thieno[3,2-f][1,2,4]triazolo[4,3-a][1,4]-diazepin-6-yl)-N-(1-(6-(2,4-dioxotetrahydropyrimidin-1 (2H)-yl)-1H-indol-3-yl)-2-oxo-6,9,12,15,18,21-hexaoxa-3-azatricosan-23-yl)acetamide] | – | DC50 [3]: 970 nM; Dmax [3]: 111%; Kd [4]: 30 nM |
| CN1CCCc2ccc(N3CCC(=O)NC3=O)cc21 [Example 33, 1-(1-Methyl-1,2,3,4-tetrahydroquinolin-7-yl)dihydropyrimidine-2,4 (1H,3H)-dione] | 762 | SALL4 degradation [5]: no observable/meaningful SALL4 degradation; IKZF1 degradation [1]: no observable/meaningful IKZF1 degradation |
| O=C1CCN(c2ccc3cc[nH]c3c2)C(=O)N1 [Example 55, 1-(1H-Indol-6-yl)dihydropyrimidine-2,4 (1H,3H)-dione] | 220 | SALL4 degradation [5]: no observable/meaningful SALL4 degradation; IKZF1 degradation [1]: no observable/meaningful IKZF1 degradation |
| Cn1ccc2ccc(N3CCC(=O)NC3=O)cc21 [Example 59, 1-(1-Methyl-1H-indol-6-yl)dihydropyrimidine-2,4 (1H,3H)-dione] | 329 | SALL4 degradation [5]: no observable/meaningful SALL4 degradation |
| O=C1CCN(c2ccc3cnoc3c2)C(=O)N1 [Example 39, 1-(Benzo[d]isoxazol-6-yl)dihydropyrimidine-2,4 (1H,3H)-dione] | 82 | IKZF1 degradation [1]: no observable/meaningful IKZF1 degradation |
| Cc1sc2c(c1C)C(c1ccc(Cl)cc1)=N[C@@H](CC(=O)NCCNC(=O)Cc1c[nH]c3cc(N4CCC(=O)NC4=O)ccc13)c1nnc(C)n1-2 [Example 127, (S)-2-(4-(4-Chlorophenyl)-2,3,9-trimethyl-6H-thieno[3,2-f][1,2,4]triazolo[4,3-a][1,4]-diazepin-6-yl)-N-(2-(2-(6-(2,4-dioxotetrahydropyrimidin-1 (2H)-yl)-1H-indol-3-yl)acetamido)ethyl)-acetamide] | – | DC50 [3]: 198 nM; Dmax [3]: 97.2%; Kd [4]: 13 nM |
| O=C1CCN(c2cnc3cc[nH]c3c2)C(=O)N1 [Example 40, 1-(1H-Pyrrolo[3,2-b]pyridin-6-yl)dihydropyrimidine-2,4 (1H,3H)-dione] | 186 | IKZF1 degradation [1]: no observable/meaningful IKZF1 degradation |
| CN1CCN(c2cn(C)c3ccc(N4CCC(=O)NC4=O)cc23)CC1 [Example 80, 1-(1-Methyl-3-(4-methylpiperazin-1-yl)-1H-indol-5-yl)dihydropyrimidine-2,4 (1H,3H)-dione] | 3150 | – |
| CN1CCc2cc(N3CCC(=O)NC3=O)ccc21 [Example 21, 1-(1-Methylindolin-5-yl)dihydropyrimidine-2,4 (1H,3H)-dione] | 784 | – |
| CN1CCC(c2cc3c(N4CCC(=O)NC4=O)cccc3[nH]2)CC1 [Example 87, 1-(2-(1-Methylpiperidin-4-yl)-1H-indol-4-yl)dihydropyrimidine-2,4 (1H,3H)-dione] | 379 | – |
| Cc1c(N2CCC(=O)NC2=O)ccc2cc[nH]c12 [Example 57, 1-(7-Methyl-1H-indol-6-yl)dihydropyrimidine-2,4 (1H,3H)-dione] | 96 | – |
| O=C1CCN(c2ccc3cc(C4CCNCC4)[nH]c3c2)C(=O)N1 [Example 81, 1-(2-(Piperidin-4-yl)-1H-indol-6-yl)dihydropyrimidine-2,4 (1H,3H)-dione] | 65 | – |
| O=C1CCN(c2ccc3cn(C4CCNCC4)nc3c2)C(=O)N1 [Example 109, 1-(2-(Piperidin-4-yl)-2H-indazol-6-yl)dihydropyrimidine-2,4 (1H,3H)-dione] | 1030 | – |
| O=C1CCN(c2cccc3[nH]ccc23)C(=O)N1 [Example 18, 1-(1H-Indol-4-yl)dihydropyrimidine-2,4 (1H,3H)-dione] | 347 | – |
| Cn1c(C2CCNCC2)cc2c(N3CCC(=O)NC3=O)cccc21 [Example 88, 1-(1-Methyl-2-(piperidin-4-yl)-1H-indol-4-yl)dihydropyrimidine-2,4 (1H,3H)-dione] | 679 | – |
| CN1CCC(n2ccc3ccc(N4CCC(=O)NC4=O)cc32)CC1 [Example 121, 1-(1-(1-Methylpiperidin-4-yl)-1H-indol-6-yl)dihydropyrimidine-2,4 (1H,3H)-dione] | 3840 | – |
| CNC(=O)Cc1cc2ccc(N3CCC(=O)NC3=O)cc2[nH]1 [Example 67, 2-(6-(2,4-Dioxotetrahydropyrimidin-1 (2H)-yl)-1H-indol-2-yl)-N-methylacetamide] | 974 | – |
| O=C1CCN(c2cc(N3CCNCC3)cc3[nH]ccc23)C(=O)N1 [Example 91, 1-(6-(Piperazin-1-yl)-1H-indol-4-yl)dihydropyrimidine-2,4 (1H,3H)-dione] | 762 | – |
| Cc1sc2c(c1C)C(c1ccc(Cl)cc1)=N[C@@H](CC(=O)NCCOCCOCCNC(=O)Cc1c[nH]c3cc(N4CCC(=O)NC4=O)ccc13)c1nnc(C)n1-2 [Example 128, (S)-2-(4-(4-Chlorophenyl)-2,3,9-trimethyl-6H-thieno[3,2-f][1,2,4]triazolo[4,3-a][1,4]-diazepin-6-yl)-N-(2-(2-(2-(2-(6-(2,4-dioxotetrahydropyrimidin-1 (2H)-yl)-1H-indol-3-yl)acetamido)-ethoxy)ethoxy)ethyl)acetamide] | – | DC50 [3]: 1140 nM; Dmax [3]: 73.1%; Kd [4]: 19 nM |
| Cn1cc(N2CCNCC2)c2cc(N3CCC(=O)NC3=O)ccc21 [Example 76, 1-(1-Methyl-3-(piperazin-1-yl)-1H-indol-5-yl)dihydropyrimidine-2,4 (1H,3H)-dione] | 1920 | – |
| N#Cc1ncc(N2CCC(=O)NC2=O)c2cc[nH]c12 [Example 135, 4-(2,4-dioxotetrahydropyrimidin-1 (2H)-yl)-1H-pyrrolo[2,3-c]pyridine-7-carbonitrile] | 594 | – |
| CN(C)c1cc(N2CCC(=O)NC2=O)cc2[nH]ccc12 [Example 133, 1-(4-(Dimethylamino)-1H-indol-6-yl)dihydropyrimidine-2,4 (1H,3H)-dione] | 2820 | – |
| O=C1CCC(N2C(=O)c3ccccc3C2=O)C(=O)N1 (stereo not drawn) [thalidomide, reference compound] | – | SALL4 degradation [5]: degradation of SALL4 to an undetected level |
